Experimental data from the NIST ThermoML archive (doi:10.1021/je400463n).

Test: mn = molality of the nth substance listed, in mol/kg
Settings: 100 kPa, Liquid, Pycnometric method

CCCCCCCCCCCC[N+](C)(C)C.[Br-] [dodecyltrimethylammonium bromide] + O
mass density [kg/m3]
Settings	293.15 K	298.15 K	303.15 K	308.15 K	313.15 K	318.15 K
m1 = 0.00608	998.345	997.176	995.77	994.144	992.319	990.306
m1 = 0.00707	998.368	997.197	995.79	994.162	992.336	990.321
m1 = 0.00796	998.388	997.216	995.807	994.178	992.35	990.334
m1 = 0.00897	998.411	997.237	995.827	994.196	992.367	990.349
m1 = 0.00999	998.434	997.259	995.847	994.214	992.383	990.364
m1 = 0.01096	998.456	997.28	995.866	994.232	992.399	990.379
m1 = 0.01199	998.48	997.302	995.886	994.25	992.416	990.394
m1 = 0.01299	998.503	997.324	995.905	994.268	992.432	990.409
m1 = 0.01398	998.524	997.343	995.923	994.286	992.448	990.424
m1 = 0.01503	998.543	997.363	995.942	994.304	992.466	990.44
m1 = 0.01596	998.556	997.376	995.956	994.32	992.48	990.454
m1 = 0.01802	998.592	997.408	995.986	994.345	992.506	990.48
m1 = 0.02001	998.622	997.435	996.013	994.37	992.532	990.503
m1 = 0.02494	998.695	997.505	996.077	994.432	992.587	990.558
m1 = 0.02994	998.775	997.58	996.147	994.498	992.647	990.616
m1 = 0.03501	998.85	997.647	996.212	994.557	992.706	990.671
m1 = 0.03995	998.918	997.712	996.271	994.615	992.76	990.721
m1 = 0.04505	998.991	997.78	996.336	994.675	992.817	990.774
m1 = 0.04973	999.061	997.845	996.396	994.733	992.871	990.824
m1 = 0.05498	999.145	997.923	996.47	994.801	992.935	990.883
m1 = 0.06001	999.217	997.992	996.535	994.86	992.993	990.938
